# Reference: US8993483B2, “Combination of active substances with insecticidal properties” (Bayer Intellectual Property GmbH, priority 2003, dated 2015)
# Tested on: caterpillars of the cotton boll worm (Heliothis armigera)
# Assay: Heliothis armigera test (cabbage leaf dip, kill rate)
# Format: in vivo
# Conditions: single active compound, 4 ppm
# Description: (§1) The expected action for a given combination of two active compounds can be calculated as follows, according to S. R. Colby, Weeds 15 (1967), 20-22:
# (§2) • X is the kill rate, expressed as a percentage of the untreated control, when employing active compound A at an application rate of m g/ha or in a concentration of m ppm, • Y is the kill rate, expressed as a percentage of the untreated control, when employing active compound B at an application rate of n g/ha or in a concentration of n ppm and • E is the kill rate, expressed as a percentage of the untreated control, when employing active compounds A and B at application rates of m and n g/ha or in a concentration of m and n ppm, then
# (§3) If the actual insecticidal kill rate exceeds the calculated value, the action of the combination is superadditive, i.e. a synergistic effect is present. In this case, the actually observed kill rate must exceed the value calculated using the above formula for the expected kill rate (E).
# (§4) To produce a suitable preparation of active compound, 1 part by weight of active compound is mixed with the stated amounts of solvent and emulsifier, and the concentrate is diluted with emulsifier-containing water to the desired concentration.
# Cabbage leaves (Brassica oleracea) are treated by being dipped into the preparation of active compound of the desired concentration and are populated with caterpillars of the cotton boll worm (Heliothis armigera) while the leaves are still moist.
# (§5) After the desired period of time, the kill in % is determined. 100% means that all caterpillars have been killed; 0% means that none of the caterpillars have been killed. The kill rates determined are calculated using Colby's formula (see page 43).
row,Structure (SMILES),"Kill rate in % after 6 d, found"
1,"N#C/N=C1\SCCN1Cc1ccc(Cl)nc1 [Ik, thiacloprid]",25%

# Tested on: caterpillars of the armyworm (Spodoptera frugiperda)
# Assay: Spodoptera frugiperda test (cabbage leaf dip, kill rate)
# Format: in vivo
# Conditions: single active compound, 4 ppm
# Description: as §1, §2, §3
# Spodoptera frugiperda Test
# as §4
# Cabbage leaves (Brassica oleracea) are treated by being dipped into the preparation of active compound of the desired concentration and are populated with caterpillars of the armyworm (Spodoptera frugiperda) while the leaves are still moist.
# as §5
row,Structure (SMILES),"Kill rate in % after 6 d, found"
1,"N#C/N=C1\SCCN1Cc1ccc(Cl)nc1 [Ik, thiacloprid]",0%

# Tested on: not given
# Assay: not given
# Conditions: not given
row,Structure (SMILES),melting point
1,Cc1cc(Cl)cc(C(=O)NC(C)C)c1NC(=O)c1cc(OCC(F)(F)F)nn1-c1ncccc1Cl,217 to 218 °C
2,CC(C)NC(=O)c1cc(Cl)cc(Cl)c1NC(=O)c1cc(OCC(F)(F)F)nn1-c1ncccc1Cl,232 to 235 °C
3,CCNC(=O)c1cc(Cl)cc(C)c1NC(=O)c1cc(C(F)(F)F)nn1-c1ncccc1Cl,163 to 164 °C
4,CCNC(=O)c1cc(Cl)cc(C)c1NC(=O)c1cc(OCC(F)(F)F)nn1-c1ncccc1Cl,205 to 207 °C
5,CNC(=O)c1cc(Cl)cc(C)c1NC(=O)c1cc(OCC(F)(F)F)nn1-c1ncccc1Cl,207 to 208 °C
6,CCNC(=O)c1cc(Cl)cc(C)c1NC(=O)c1cc(Br)nn1-c1ncccc1Cl,194 to 195 °C
7,Cc1cc(Cl)cc(C(=O)NC(C)(C)C)c1NC(=O)c1cc(C(F)(F)F)nn1-c1ncccc1Cl,223 to 225 °C
8,Cc1cc(Cl)cc(C(=O)NC(C)(C)C)c1NC(=O)c1cc(Br)nn1-c1ncccc1Cl,159 to 161 °C
9,CNC(=O)c1cc(Br)cc(C)c1NC(=O)c1cc(C(F)(F)F)nn1-c1ncccc1Cl,222 to 223 °C
10,CCNC(=O)c1cc(Br)cc(C)c1NC(=O)c1cc(C(F)(F)F)nn1-c1ncccc1Cl,192 to 193 °C
11,Cc1cc(Br)cc(C(=O)NC(C)C)c1NC(=O)c1cc(C(F)(F)F)nn1-c1ncccc1Cl,197 to 198 °C
12,Cc1cc(Br)cc(C(=O)NC(C)(C)C)c1NC(=O)c1cc(C(F)(F)F)nn1-c1ncccc1Cl,247 to 248 °C
13,Cc1cc(Br)cc(C(=O)NC(C)C)c1NC(=O)c1cc(Cl)nn1-c1ncccc1Cl,152 to 153 °C
14,Cc1cc(Br)cc(C(=O)NC(C)(C)C)c1NC(=O)c1cc(Cl)nn1-c1ncccc1Cl,224 to 225 °C
15,CNC(=O)c1cc(Br)cc(C)c1NC(=O)c1cc(Br)nn1-c1ncccc1Cl,147 to 149 °C
16,CCNC(=O)c1cc(Br)cc(C)c1NC(=O)c1cc(Br)nn1-c1ncccc1Cl,194 to 196 °C
17,Cc1cc(Br)cc(C(=O)NC(C)C)c1NC(=O)c1cc(Br)nn1-c1ncccc1Cl,185 to 187 °C
18,Cc1cc(Br)cc(C(=O)NC(C)(C)C)c1NC(=O)c1cc(Br)nn1-c1ncccc1Cl,215 to 221 °C
19,CNC(=O)c1cc(I)cc(C)c1NC(=O)c1cc(C(F)(F)F)nn1-c1ncccc1Cl,199 to 200 °C
20,CCNC(=O)c1cc(I)cc(C)c1NC(=O)c1cc(C(F)(F)F)nn1-c1ncccc1Cl,199 to 200 °C
21,Cc1cc(I)cc(C(=O)NC(C)C)c1NC(=O)c1cc(C(F)(F)F)nn1-c1ncccc1Cl,188 to 189 °C

row,Structure (SMILES),melting point
1,Cc1cc(I)cc(C(=O)NC(C)(C)C)c1NC(=O)c1cc(C(F)(F)F)nn1-c1ncccc1Cl,242 to 243 °C
2,Cc1cc(I)cc(C(=O)NC(C)C)c1NC(=O)c1cc(Cl)nn1-c1ncccc1Cl,189 to 190 °C
3,Cc1cc(I)cc(C(=O)NC(C)(C)C)c1NC(=O)c1cc(Cl)nn1-c1ncccc1Cl,228 to 229 °C
4,CNC(=O)c1cc(I)cc(C)c1NC(=O)c1cc(Br)nn1-c1ncccc1Cl,229 to 230 °C
5,Cc1cc(I)cc(C(=O)NC(C)C)c1NC(=O)c1cc(Br)nn1-c1ncccc1Cl,191 to 192 °C
6,CNC(=O)c1cc(Br)cc(Br)c1NC(=O)c1cc(C(F)(F)F)nn1-c1ncccc1Cl,162 to 163 °C
7,CCNC(=O)c1cc(Br)cc(Br)c1NC(=O)c1cc(C(F)(F)F)nn1-c1ncccc1Cl,188 to 189 °C
8,CC(C)NC(=O)c1cc(Br)cc(Br)c1NC(=O)c1cc(C(F)(F)F)nn1-c1ncccc1Cl,192 to 193 °C
9,CC(C)(C)NC(=O)c1cc(Br)cc(Br)c1NC(=O)c1cc(C(F)(F)F)nn1-c1ncccc1Cl,246 to 247 °C
10,CC(C)NC(=O)c1cc(Br)cc(Br)c1NC(=O)c1cc(Cl)nn1-c1ncccc1Cl,197 to 199 °C
11,CC(C)(C)NC(=O)c1cc(Br)cc(Br)c1NC(=O)c1cc(Cl)nn1-c1ncccc1Cl,210 to 212 °C
12,CNC(=O)c1cc(Br)cc(Br)c1NC(=O)c1cc(Br)nn1-c1ncccc1Cl,166 to 168 °C
13,CCNC(=O)c1cc(Br)cc(Br)c1NC(=O)c1cc(Br)nn1-c1ncccc1Cl,196 to 197 °C
14,CC(C)NC(=O)c1cc(Br)cc(Br)c1NC(=O)c1cc(Br)nn1-c1ncccc1Cl,162 to 163 °C
15,CC(C)(C)NC(=O)c1cc(Br)cc(Br)c1NC(=O)c1cc(Br)nn1-c1ncccc1Cl,194 to 196 °C
16,CC(C)(C)NC(=O)c1cc(Br)cc(Cl)c1NC(=O)c1cc(C(F)(F)F)nn1-c1ncccc1Cl,143 to 145 °C
17,CN(C)C(=O)c1cc(Br)cc(Br)c1NC(=O)c1cc(Cl)nn1-c1ncccc1Cl,153 to 155 °C
18,Cc1cc(Br)cc(C(=O)N(C)C)c1NC(=O)c1cc(C(F)(F)F)nn1-c1ncccc1Cl,207 to 208 °C
19,CN(C)C(=O)c1cc(Br)cc(Br)c1NC(=O)c1cc(Br)nn1-c1ncccc1Cl,189 to 190 °C
20,CN(C)C(=O)c1cc(Cl)cc(Cl)c1NC(=O)c1cc(C(F)(F)F)nn1-c1ncccc1Cl,225 to 227 °C
21,CN(C)C(=O)c1cc(Br)cc(Br)c1NC(=O)c1cc(C(F)(F)F)nn1-c1ncccc1Cl,228 to 229 °C

# Now from value to molecule:
row,melting point,Structure (SMILES)
1,200 to 201 °C,CC(C)NC(=O)c1cc(Cl)cc(Cl)c1NC(=O)c1cc(C(F)(F)F)nn1-c1ncccc1Cl
2,197 to 199 °C,CC(C)NC(=O)c1cc(Cl)cc(Cl)c1NC(=O)c1cc(Cl)nn1-c1ncccc1Cl
3,188 to 190 °C,CC(C)NC(=O)c1cc(Cl)cc(Cl)c1NC(=O)c1cc(Br)nn1-c1ncccc1Cl
4,199 to 200 °C,CCNC(=O)c1cc(Cl)cc(C)c1NC(=O)c1cc(Cl)nn1-c1ncccc1Cl
5,201 to 202 °C,CCNC(=O)c1cc(Cl)cc(Cl)c1NC(=O)c1cc(C(F)(F)F)nn1-c1ncccc1Cl
6,206 to 208 °C,CCNC(=O)c1cc(Cl)cc(Cl)c1NC(=O)c1cc(Cl)nn1-c1ncccc1Cl
7,214 to 215 °C,CCNC(=O)c1cc(Cl)cc(Cl)c1NC(=O)c1cc(Br)nn1-c1ncccc1Cl
8,163 to 165 °C,Cc1cc(Cl)cc(C(=O)NC(C)(C)C)c1NC(=O)c1cc(Cl)nn1-c1ncccc1Cl
9,170 to 172 °C,CC(C)(C)NC(=O)c1cc(Cl)cc(Cl)c1NC(=O)c1cc(C(F)(F)F)nn1-c1ncccc1Cl
10,172 to 173 °C,CC(C)(C)NC(=O)c1cc(Cl)cc(Cl)c1NC(=O)c1cc(Cl)nn1-c1ncccc1Cl
11,179 to 180 °C,CC(C)(C)NC(=O)c1cc(Cl)cc(Cl)c1NC(=O)c1cc(Br)nn1-c1ncccc1Cl
12,225 to 226 °C,CNC(=O)c1cc(Cl)cc(C)c1NC(=O)c1cc(Cl)nn1-c1ncccc1Cl
13,140 to 141 °C,CNC(=O)c1cc(Br)cc(C)c1NC(=O)c1cc(Cl)nn1-c1ncccc1Cl
14,192 to 194 °C,CCNC(=O)c1cc(Br)cc(C)c1NC(=O)c1cc(Cl)nn1-c1ncccc1Cl
15,233 to 234 °C,CNC(=O)c1cc(I)cc(C)c1NC(=O)c1cc(Cl)nn1-c1ncccc1Cl
16,196 to 197 °C,CCNC(=O)c1cc(I)cc(C)c1NC(=O)c1cc(Cl)nn1-c1ncccc1Cl
17,155 to 157 °C,CNC(=O)c1cc(Cl)cc(Cl)c1NC(=O)c1cc(C(F)(F)F)nn1-c1ncccc1Cl
18,188 to 190 °C,CNC(=O)c1cc(Br)cc(Br)c1NC(=O)c1cc(Cl)nn1-c1ncccc1Cl
19,192 to 194 °C,CCNC(=O)c1cc(Br)cc(Br)c1NC(=O)c1cc(Cl)nn1-c1ncccc1Cl
20,192 to 195 °C,CNC(=O)c1cc(Cl)cc(Cl)c1NC(=O)c1cc(OCC(F)(F)F)nn1-c1ncccc1Cl
21,231 to 232 °C,CN(C)C(=O)c1cc(Cl)cc(Cl)c1NC(=O)c1cc(Cl)nn1-c1ncccc1Cl
22,216 to 218 °C,CN(C)C(=O)c1cc(Cl)cc(Cl)c1NC(=O)c1cc(Br)nn1-c1ncccc1Cl
23,205 to 206 °C,CNC(=O)c1cc(Cl)cc(Cl)c1NC(=O)c1cc(Cl)nn1-c1ncccc1Cl
24,245 to 246 °C,CNC(=O)c1cc(Cl)cc(Cl)c1NC(=O)c1cc(Br)nn1-c1ncccc1Cl

# Tested on: caterpillars of the diamond back moth (Plutella xylostella, normally sensitive strain)
# Assay: Plutella xylostella test (normally sensitive strain; cabbage leaf dip, kill rate)
# Format: in vivo
# Conditions: single active compound, 4 ppm
# Description: as §1, §2, §3
# Plutella xylostella Test (Normally Sensitive Strain)
# as §4
# Cabbage leaves (Brassica oleracea) are treated by being dipped into the preparation of active compound of the desired concentration and are populated with larvae of caterpillars of the diamond back moth (Plutella xylostella, normally sensitive strain) while the leaves are still moist.
# After the desired period of time, the kill in % is determined. 100% means that all caterpillars have been killed; 0% means that none of the caterpillars have been killed. The kill rates determined are calculated using Colby's formula (see sheet 1).
row,Structure (SMILES),"Kill rate in % after 6 d, found"
1,"N#C/N=C1\SCCN1Cc1ccc(Cl)nc1 [Ik, thiacloprid]",0%
